According to patent US11254686B1 (Corvus Pharmaceuticals, Inc., priority 2017, dated 2022):
Where two headings read alike, the source gives them in different places.

Experiments:
adenosine A2B receptor = adenosine A2B receptor (Homo sapiens (Human), UniProt P29275); assay: Adenosine receptor activity assay (Table 1), A2B activity; assay type: biochemical; details: for IC50: read-out: Ave A2B cAMP IC50
adenosine A2A receptor = adenosine A2A receptor (Homo sapiens (Human), UniProt P29274); assay: Adenosine receptor activity assay (Table 1), A2A activity; assay type: biochemical; details: read-out: Ave A2A cAMP IC50
adenosine A1 receptor [1] = biological target: T1, adenosine A1 receptor (Homo sapiens (Human), UniProt P30542); assay: Adenosine receptor activity assay (Table 1), A1 cAMP; assay type: cell-based
adenosine A3 receptor [2] = biological target: T2, adenosine A3 receptor (Homo sapiens (Human), UniProt P0DMS8); assay: Adenosine receptor activity assay (Table 1), A3 cAMP; assay type: cell-based
adenosine A1 receptor [3] = biological target: T1, adenosine A1 receptor; assay: Adenosine receptor activity assay (Table 1), A1 cAMP; assay type: biochemical
Description: (§1) Table 1. Compounds (e.g., Adenosine Receptor modulators) and activity assay results. The legend is as follows: A=<10 nM; B=10-50 nM; C=50-100 nM; D=100-500; and E=>500 nM. The ratio corresponds to the A2A activity to the A2B activity; or A2A/A2B.

adenosine A3 receptor [4] = biological target: T2, adenosine A3 receptor; assay: Adenosine receptor activity assay (Table 1), A3 cAMP; assay type: biochemical
Description: as §1

[5] = A2A activity to A2B activity (A2A/A2B)
[6] = A2A activity to the A2B activity, A2A/A2B

T1 sequence (P30542 whole entry): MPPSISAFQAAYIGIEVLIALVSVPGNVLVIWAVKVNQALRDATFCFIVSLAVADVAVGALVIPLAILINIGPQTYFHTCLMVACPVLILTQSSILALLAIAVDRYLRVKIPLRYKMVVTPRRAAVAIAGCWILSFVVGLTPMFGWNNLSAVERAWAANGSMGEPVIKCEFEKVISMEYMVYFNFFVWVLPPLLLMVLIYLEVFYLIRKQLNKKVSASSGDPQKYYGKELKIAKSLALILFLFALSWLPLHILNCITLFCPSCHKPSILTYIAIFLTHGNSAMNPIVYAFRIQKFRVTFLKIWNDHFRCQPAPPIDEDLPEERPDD
T2 sequence (P0DMS8 whole entry): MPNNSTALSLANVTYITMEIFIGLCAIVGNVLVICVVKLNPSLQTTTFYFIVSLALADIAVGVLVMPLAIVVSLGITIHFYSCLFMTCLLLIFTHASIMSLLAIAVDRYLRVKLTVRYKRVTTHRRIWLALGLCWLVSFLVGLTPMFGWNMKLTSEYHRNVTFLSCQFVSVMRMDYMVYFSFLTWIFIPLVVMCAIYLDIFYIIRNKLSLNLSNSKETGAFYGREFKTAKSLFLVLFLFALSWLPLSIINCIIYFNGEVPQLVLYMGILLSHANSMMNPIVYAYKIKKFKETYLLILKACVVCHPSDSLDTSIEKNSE
Chain of adenosine A2B receptor (P29275 whole entry): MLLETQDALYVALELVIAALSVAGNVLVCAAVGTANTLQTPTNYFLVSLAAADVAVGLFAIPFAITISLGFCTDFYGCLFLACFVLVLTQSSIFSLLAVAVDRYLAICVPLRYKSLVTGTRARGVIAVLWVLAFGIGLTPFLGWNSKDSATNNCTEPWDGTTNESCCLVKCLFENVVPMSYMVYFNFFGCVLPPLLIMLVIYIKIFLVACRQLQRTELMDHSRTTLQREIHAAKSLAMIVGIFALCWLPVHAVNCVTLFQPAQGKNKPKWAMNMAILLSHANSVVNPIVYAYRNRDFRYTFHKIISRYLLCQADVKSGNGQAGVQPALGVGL
Chain of adenosine A2A receptor (P29274 whole entry): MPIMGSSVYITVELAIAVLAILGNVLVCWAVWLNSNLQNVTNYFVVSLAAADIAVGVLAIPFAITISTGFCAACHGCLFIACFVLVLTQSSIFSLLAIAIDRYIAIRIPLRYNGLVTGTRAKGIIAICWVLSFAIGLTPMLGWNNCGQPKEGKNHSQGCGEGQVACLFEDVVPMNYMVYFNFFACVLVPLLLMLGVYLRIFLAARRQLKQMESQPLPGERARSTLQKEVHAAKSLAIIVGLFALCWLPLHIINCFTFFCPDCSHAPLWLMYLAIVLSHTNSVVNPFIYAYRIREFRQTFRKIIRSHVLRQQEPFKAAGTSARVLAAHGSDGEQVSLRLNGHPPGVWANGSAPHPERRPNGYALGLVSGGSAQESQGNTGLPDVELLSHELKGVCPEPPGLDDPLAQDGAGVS

Structure (SMILES) | Ratio (adenosine A2B receptor; [5]) | IC50 (adenosine A2B receptor) [nM] | IC50 (adenosine A2A receptor) [nM] | IC50 (adenosine A1 receptor [1]) [nM] | IC50 (adenosine A3 receptor [2]) [nM] | Ratio (adenosine A2B receptor; [6]) | IC50 (adenosine A1 receptor [3]) [nM] | IC50 (adenosine A3 receptor [4]) [nM]
Cc1cc2nc(N[C@@H](C)c3cncc(F)c3)nc(C(=O)N3CC[C@@H](CO)C3)c2s1 [Example Z310, (2-(((S)-1-(5-Fluoropyridin-3-yl)ethyl)amino)-6-methylthieno[3,2-d]pyrimidin-4-yl)((R)-3-(hydroxymethyl)pyrrolidin-1-yl)methanone] | 71.73 | < 10 | 100 to 500 | > 500 | > 500 |  |  | 
Cc1cc2nc(N[C@@H](C)c3cncc(F)c3)nc(C(=O)N3CC[C@H](CO)C3)c2s1 [Example Z309, (2-(((S)-1-(5-Fluoropyridin-3-yl)ethyl)amino)-6-methylthieno[3,2-d]pyrimidin-4-yl)((S)-3-(hydroxymethyl)pyrrolidin-1-yl)methanone] | 37.14 | < 10 | 50 to 100 | > 500 | > 500 |  |  | 
Cc1cc2nc(N[C@@H](C)c3cncc(F)c3)nc(C(=O)N3CC(N4CCCC4)C3)c2s1 [Example Z540, (S)-(2-((1-(5-Fluoropyridin-3-yl)ethyl)amino)-6-methylthieno[3,2-d]pyrimidin-4-yl)(3-(pyrrolidin-1-yl)azetidin-1-yl)methanone] |  | 10 to 50 | 100 to 500 |  |  | 33.20 | > 500 | > 500
Cc1cc2nc(N[C@@H](C)c3cncc(F)c3)nc(C(=O)N3CC[C@H](NC(=O)OCc4ccccc4)C3)c2s1 [Example Z473, Benzyl ((S)-1-(2-(((S)-1-(5-fluoropyridin-3-yl)ethyl)amino)-6-methylthieno[3,2-d]pyrimidine-4-carbonyl)pyrrolidin-3-yl)carbamate] |  | 10 to 50 | > 500 |  |  | 20.60 | > 500 | > 500
Cc1cc2nc(N[C@@H](C)c3cncc(F)c3)nc(C(=O)N3CC(NC(=O)C4CCC4)C3)c2s1 [Example Z542, (S)—N-(1-(2-((1-(5-Fluoropyridin-3-yl)ethyl)amino)-6-methylthieno[3,2-d]pyrimidine-4-carbonyl)azetidin-3-yl)cyclobutanecarboxamide] |  | 10 to 50 | 10 to 50 |  |  | 1.45 | > 500 | 50 to 100
C[C@H](Nc1nc(C(=O)N2CC(NC(=O)OC(C)(C)C)C2)c2sccc2n1)c1cncc(F)c1 [Example Z583, tert-Butyl (S)-(1-(2-((1-(5-fluoropyridin-3-yl)ethyl)amino)thieno[3,2-d]pyrimidine-4-carbonyl)azetidin-3-yl)carbamate] |  | 10 to 50 | 10 to 50 |  |  | 0.37 | > 500 | > 500
CNC(=O)NCC1CN(C(=O)c2nc(N[C@@H](C)c3cncc(F)c3)nc3ccsc23)C1 [Example Z576, (S)-1-((1-(2-((1-(5-Fluoropyridin-3-yl)ethyl)amino)thieno[3,2-d]pyrimidine-4-carbonyl)azetidin-3-yl)methyl)-3-methylurea] |  | < 10 | 100 to 500 |  |  | 26.03 | > 500 | > 500
Cc1cc2nc(N[C@@H](C)c3cncc(F)c3)nc(C(=O)NCCC3CCN(C)CC3)c2s1 [Example Z562, (S)-2-((1-(5-Fluoropyridin-3-yl)ethyl)amino)-6-methyl-N-(2-(1-methylpiperidin-4-yl)ethyl)thieno[3,2-d]pyrimidine-4-carboxamide] |  | 10 to 50 | > 500 |  |  | 127.97 | > 500 | > 500
C[C@H](Nc1nc(C(=O)N2CC(NC(=O)C3CCOC3)C2)c2sccc2n1)c1cncc(F)c1 (stereo partly drawn) [Example Z519, N-(1-(2-(((S)-1-(5-Fluoropyridin-3-yl)ethyl)amino)thieno[3,2-d]pyrimidine-4-carbonyl)azetidin-3-yl)tetrahydrofuran-3-carboxamide] |  | < 10 | 10 to 50 |  |  | 3.87 | > 500 | > 500
Cc1cc2nc(N[C@@H](C)c3cncc(F)c3)nc(C(=O)N3CC(CN)C3)c2s1 [Example Z478, (S)-(3-(Aminomethyl)azetidin-1-yl)(2-((1-(5-fluoropyridin-3-yl)ethyl)amino)-6-methylthieno[3,2-d]pyrimidin-4-yl)methanone] |  | 10 to 50 | > 500 |  |  | 167.42 | > 500 | > 500
COc1ccc(CCCNC(=O)c2nc(N[C@@H](C)c3cncc(F)c3)nc3ccsc23)cc1 [Example Z422, (S)-2-((1-(5-Fluoropyridin-3-yl)ethyl)amino)-N-(3-(4-methoxyphenyl)propyl)thieno[3,2-d]pyrimidine-4-carboxamide] |  | 10 to 50 | 100 to 500 |  |  | 7.52 | > 500 | > 500
CN[C@@H]1CCN(C(=O)c2nc(N[C@@H](C)c3cncc(F)c3)nc3cc(C)sc23)C1 [Example Z560, (2-(((S)-1-(5-Fluoropyridin-3-yl)ethyl)amino)-6-methylthieno[3,2-d]pyrimidin-4-yl)((R)-3-(methylamino)pyrrolidin-1-yl)methanone] |  | 50 to 100 | > 500 |  |  | 59.47 | > 500 | > 500
CN[C@H]1CCN(C(=O)c2nc(N[C@@H](C)c3cncc(F)c3)nc3cc(C)sc23)C1 [Example Z561, (2-(((S)-1-(5-Fluoropyridin-3-yl)ethyl)amino)-6-methylthieno[3,2-d]pyrimidin-4-yl)((S)-3-(methylamino)pyrrolidin-1-yl)methanone] |  | 50 to 100 | > 500 |  |  | 140.19 | > 500 | > 500
CCNC(=O)C1CCN(C(=O)c2nc(N[C@@H](C)c3cncc(F)c3)nc3ccsc23)C1 (stereo partly drawn) [Example Z520, N-Ethyl-1-(2-(((S)-1-(5-fluoropyridin-3-yl)ethyl)amino)thieno[3,2-d]pyrimidine-4-carbonyl)pyrrolidine-3-carboxamide] |  | < 10 | 100 to 500 |  |  | 27.57 | > 500 | > 500
Cc1csc2c(C(=O)NCc3ccccn3)nc(N[C@@H](C)c3ccccn3)nc12 [Example Z451, (S)-7-Methyl-2-((1-(pyridin-2-yl)ethyl)amino)-N-(pyridin-2-ylmethyl)thieno[3,2-d]pyrimidine-4-carboxamide] |  | 10 to 50 | 10 to 50 |  |  | 0.35 | 50 to 100 | 10 to 50
Cc1cc2nc(N[C@@H](C)c3ccccn3)nc(C(N)=O)c2s1 [Example Z480, (S)-6-Methyl-2-((1-(pyridin-2-yl)ethyl)amino)thieno[3,2-d]pyrimidine-4-carboxamide] |  | 10 to 50 | > 500 |  |  | 47.68 | > 500 | > 500
CC(=O)NCC1CN(C(=O)c2nc(N[C@@H](C)c3cncc(F)c3)nc3ccsc23)C1 [Example Z528, (S)—N-((1-(2-((1-(5-Fluoropyridin-3-yl)ethyl)amino)thieno[3,2-d]pyrimidine-4-carbonyl)azetidin-3-yl)methyl)acetamide] |  | < 10 | 100 to 500 |  |  | 44.92 | > 500 | > 500
Cc1cc2nc(N[C@@H](C)c3cncc(F)c3)nc(C(=O)N3CC(N(C)C(=O)CC(C)(C)C)C3)c2s1 [Example Z508, (S)—N-(1-(2-((1-(5-Fluoropyridin-3-yl)ethyl)amino)-6-methylthieno[3,2-d]pyrimidine-4-carbonyl)azetidin-3-yl)-N,3,3-trimethylbutanamide] |  | 10 to 50 | 10 to 50 |  |  | 1.06 | > 500 | > 500
COc1cccc(CCNC(=O)c2nc(N[C@@H](C)c3cncc(F)c3)nc3ccsc23)n1 [Example Z411, (S)-2-((1-(5-Fluoropyridin-3-yl)ethyl)amino)-N-(2-(6-methoxypyridin-2-yl)ethyl)thieno[3,2-d]pyrimidine-4-carboxamide] |  | < 10 | 100 to 500 |  |  | 19.23 | > 500 | > 500
C[C@H](Nc1nc(C(=O)NCCc2cccc(O)c2)c2sccc2n1)c1ccccn1 [Example Z428, (S)—N-(3-Hydroxyphenethyl)-2-((1-(pyridin-2-yl)ethyl)amino)thieno[3,2-d]pyrimidine-4-carboxamide] |  | 10 to 50 | 100 to 500 |  |  | 10.94 | > 500 | > 500
CCNC(=O)CC1CN(C(=O)c2nc(N[C@@H](C)c3cncc(F)c3)nc3cc(C)sc23)C1 [Example Z495, (S)—N-Ethyl-2-(1-(2-((1-(5-fluoropyridin-3-yl)ethyl)amino)-6-methylthieno[3,2-d]pyrimidine-4-carbonyl)azetidin-3-yl)acetamide] |  | < 10 | 50 to 100 |  |  | 23.37 | > 500 | 50 to 100
Cc1csc2c(C(=O)N3CC(NC(=O)C(C)(C)C)C3)nc(N[C@@H](C)c3ccccn3)nc12 [Example Z559, (S)—N-(1-(7-Methyl-2-((1-(pyridin-2-yl)ethyl)amino)thieno[3,2-d]pyrimidine-4-carbonyl)azetidin-3-yl)pivalamide] |  | 10 to 50 | 10 to 50 |  |  | 1.93 | > 500 | 100 to 500
